Results published in ChEMBL document CHEMBL1126821, “A systematic evaluation of the inhibition of HIV-1 protease by its C- and N-terminal peptides” (Bioorg Med Chem Lett, 1993).
Residues, ends and D or L forms follow the SMILES beside them.

Biological target: Human immunodeficiency virus type 1 protease (Human immunodeficiency virus 1) (UniProt Q72874)
Test: Inhibitory activity against HIV-1 protease at 100 uM

Structure (SMILES)	inhibition
CC[C@H](C)[C@H](NC(=O)[C@H](CCC(N)=O)NC(=O)[C@@H]1CCCN1C(C)=O)C(=O)N[C@H](C(=O)N[C@@H](CC(C)C)C(=O)O)[C@@H](C)O (Ac-PQITL-OH)	-1.4%
CC[C@H](C)[C@H](NC(=O)[C@H](CCC(N)=O)NC(C)=O)C(=O)NCC(=O)N[C@@H](CO)C(=O)N[C@H](C(=O)N[C@@H](CC(C)C)C(=O)N[C@@H](CC(N)=O)C(=O)N[C@@H](Cc1ccccc1)C(=O)O)[C@@H](C)O (Ac-QIGSTLNF-OH)	34.6%
CC(=O)N[C@H](C(=O)N[C@@H](CC(C)C)C(=O)N[C@@H](CC(N)=O)C(=O)N[C@@H](Cc1ccccc1)C(=O)O)[C@@H](C)O (Ac-TLNF-OH)	3.9%
CC[C@H](C)[C@H](NC(=O)[C@H](CCC(N)=O)NC(=O)[C@@H]1CCCN1C(C)=O)C(=O)N[C@H](C(=O)N[C@@H](CC(C)C)C(=O)N[C@@H](Cc1c[nH]c2ccccc12)C(=O)O)[C@@H](C)O (Ac-PQITLW-OH)	28.1%
CC[C@H](C)[C@H](NC(=O)[C@H](CCC(N)=O)NC(=O)[C@@H]1CCCN1C(C)=O)C(=O)N[C@H](C(=O)N[C@@H](CC(C)C)C(=O)N[C@@H](Cc1c[nH]c2ccccc12)C(=O)N[C@@H](CCC(N)=O)C(=O)O)[C@@H](C)O (Ac-PQITLWQ-OH)	26%
CC(=O)N[C@@H](CO)C(=O)N[C@H](C(=O)N[C@@H](CC(C)C)C(=O)N[C@@H](CC(N)=O)C(=O)N[C@@H](Cc1ccccc1)C(=O)O)[C@@H](C)O (Ac-STLNF-OH)	37.2%
CC[C@H](C)[C@H](NC(=O)[C@H](CCC(N)=O)NC(=O)[C@@H]1CCCN1)C(=O)N[C@H](C(=O)N[C@@H](CC(C)C)C(=O)N[C@@H](Cc1c[nH]c2ccccc12)C(=O)O)[C@@H](C)O (H-PQITLW-OH)	39.9%
CC[C@H](C)[C@H](NC(=O)[C@H](CCC(N)=O)NC(=O)[C@@H]1CCCN1)C(=O)N[C@H](C(=O)N[C@@H](CC(C)C)C(=O)N[C@@H](Cc1c[nH]c2ccccc12)C(=O)N[C@@H](CCC(N)=O)C(=O)O)[C@@H](C)O (H-PQITLWQ-OH)	1.3%
CC[C@H](C)[C@H](NC(C)=O)C(=O)NCC(=O)N[C@@H](CO)C(=O)N[C@H](C(=O)N[C@@H](CC(C)C)C(=O)N[C@@H](CC(N)=O)C(=O)N[C@@H](Cc1ccccc1)C(=O)O)[C@@H](C)O (Ac-IGSTLNF-OH)	12.6%
CC(=O)NCC(=O)N[C@@H](CO)C(=O)N[C@H](C(=O)N[C@@H](CC(C)C)C(=O)N[C@@H](CC(N)=O)C(=O)N[C@@H](Cc1ccccc1)C(=O)O)[C@@H](C)O (Ac-GSTLNF-OH)	4.6%
CC[C@H](C)[C@H](NC(=O)[C@H](CCC(N)=O)NC(=O)[C@@H]1CCCN1)C(=O)N[C@H](C(=O)N[C@@H](CC(C)C)C(=O)O)[C@@H](C)O (H-PQITL-OH)	5.6%
